Laboratory results from patent US20120244549A1, “Detection Method for Methyltransferase Enzymatic Activity” (BELLBROOK LABS, LLC, priority 2011, published 2012).

Target: T1, G9a methyltransferase (Homo sapiens, UniProt Q96KQ7)
T1 sequence (Q96KQ7 1-1210): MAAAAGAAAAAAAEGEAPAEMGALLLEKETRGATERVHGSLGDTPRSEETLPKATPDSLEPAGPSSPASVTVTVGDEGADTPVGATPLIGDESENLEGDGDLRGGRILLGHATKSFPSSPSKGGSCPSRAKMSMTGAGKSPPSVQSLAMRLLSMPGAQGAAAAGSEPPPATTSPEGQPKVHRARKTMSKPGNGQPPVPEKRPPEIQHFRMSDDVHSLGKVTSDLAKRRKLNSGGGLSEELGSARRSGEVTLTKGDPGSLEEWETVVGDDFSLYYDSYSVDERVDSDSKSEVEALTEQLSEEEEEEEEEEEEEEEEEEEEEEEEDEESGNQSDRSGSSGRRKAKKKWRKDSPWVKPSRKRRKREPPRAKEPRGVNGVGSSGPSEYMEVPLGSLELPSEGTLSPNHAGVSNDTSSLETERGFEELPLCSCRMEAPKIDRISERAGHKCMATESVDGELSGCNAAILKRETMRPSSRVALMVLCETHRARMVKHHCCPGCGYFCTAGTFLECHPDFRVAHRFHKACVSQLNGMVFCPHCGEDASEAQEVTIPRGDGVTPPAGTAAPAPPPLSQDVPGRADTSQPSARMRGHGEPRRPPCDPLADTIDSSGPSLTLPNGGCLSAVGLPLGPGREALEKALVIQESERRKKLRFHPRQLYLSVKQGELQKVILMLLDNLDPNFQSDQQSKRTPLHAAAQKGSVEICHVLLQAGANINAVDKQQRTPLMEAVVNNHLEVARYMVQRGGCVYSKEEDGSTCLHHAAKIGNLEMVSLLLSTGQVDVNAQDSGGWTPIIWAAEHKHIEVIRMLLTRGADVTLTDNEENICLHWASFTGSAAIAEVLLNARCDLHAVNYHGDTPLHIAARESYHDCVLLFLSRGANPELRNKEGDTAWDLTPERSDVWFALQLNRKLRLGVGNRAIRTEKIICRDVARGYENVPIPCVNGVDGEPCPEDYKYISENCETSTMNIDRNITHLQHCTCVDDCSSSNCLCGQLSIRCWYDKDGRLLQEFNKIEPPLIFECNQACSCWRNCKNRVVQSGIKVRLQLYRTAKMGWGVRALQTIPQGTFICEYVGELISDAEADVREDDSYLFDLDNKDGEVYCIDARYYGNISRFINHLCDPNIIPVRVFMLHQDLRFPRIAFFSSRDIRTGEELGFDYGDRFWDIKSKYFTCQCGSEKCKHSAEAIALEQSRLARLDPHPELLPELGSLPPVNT
Test: G9a histone methyltransferase inhibitor dose response, coupled-enzyme AMP fluorescent immunodetection assay (FIG. 6)
Type: biochemical
Protocol: In addition, inhibitor potencies were determined with G9a HMT.
HMT reactions were run for 60 minutes followed by addition of quench and detection reagents including the SAM-SAH coupling enzyme mixture and the Transcreener® AMP2/GMP2 Assay monoclonal antibody and tracer.

Structure (SMILES): CN1C(=O)[C@@]23C[C@]4([C@]56C[C@@]78SS[C@@](CO)(C(=O)N7[C@H]5Nc5ccccc56)N(C)C8=O)c5ccccc5N[C@@H]4N2C(=O)[C@]1(CO)SS3 [chaetocin]
- IC50: 770 µM
